pIC50: −log10 of the molar value. Values after ≈ are worked out from the molar mass of the structure shown.
Legend:
[1] = Stability of compound in rat microsomes assessed as half-life; format: ADME, Microsome
[2] = Kinetic aqueous solubility of the compound; format: physicochemical; details: buffer; read-out: Kinetic_solubility
[3] = Inhibition of recombinant mouse GALK1 using ATP as substrate incubated for 1 hr and measured by Kinase-Glo assay; details: read-out: IC50

Compound	half-life [1] [min]	solubility kinetic [2] [µg/mL]	pIC50 [3]
CC1=C(C(=O)Nc2nnc(-c3cccnc3)s2)C(c2ccccc2Cl)N=C(Nc2nc3cc(N)ccc3o2)N1 (stereo not given)	> 30	1.8 (≈ 3.23 µM)	
CC(C)CC1=C(C(=O)Nc2nncs2)C(c2ccccc2Cl)N=C(Nc2nc3ccccc3o2)N1 (stereo not given)	> 30	< 1	4.76
COC(=O)c1ccc(NC(=O)C2=C(C)NC(Nc3nc4ccccc4o3)=NC2c2ccccc2Cl)cn1 (stereo not given)	4.68	< 1	5.16
COCCNC(=O)C1CC(=O)C2=C(C1)NC(Nc1nc3ccccc3o1)=NC2c1ccccc1Cl (stereo not given)	10.2	4.23 (≈ 8.56 µM)	5.31
CC1=C(C(=O)NCc2cnn(C)c2)C(c2ccc(F)cc2Cl)N=C(Nc2nc3cccc(N)c3o2)N1 (stereo not given)	29.6	49.6 (≈ 97.5 µM)	5.16
CC1=C(C(=O)Nc2cc(N(C)C)ccn2)C(c2ccc(C)cc2Cl)N=C(Nc2nc3ccc(F)cc3o2)N1 (stereo not given)	17.6	6.2 (≈ 11.6 µM)	5.16
CC1=C(C(=O)Nc2ccc(N(C)C)cc2)C(c2ccccc2Cl)N=C(Nc2nc3ccccc3o2)N1 (stereo not given)	11.5	< 1	4.86
CC1=C(C(=O)Nc2nc(CO)cs2)C(c2ccccc2Cl)N=C(Nc2nc3ccccc3o2)N1 (stereo not given)	> 30	< 1	4.71
CC1=C(C(=O)Nc2nncs2)C(c2cccnc2Br)N=C(Nc2nc3ccccc3o2)N1 (stereo not given)	> 30	11.1 (≈ 21.7 µM)	4.71
CCn1cc(CNC(=O)C2=C(C)NC(Nc3nc4ccc(F)c(N)c4o3)=N[C@H]2c2ccc(C)cc2Cl)cn1		22.1 (≈ 41.1 µM)	6.01
COC(=O)Cc1nnc(NC(=O)C2=C(C)NC(Nc3nc4ccccc4o3)=NC2c2ccccc2Cl)s1 (stereo not given)	8.09	< 1	
CC1=C(C(=O)NCc2cnn(Cc3ccccc3)c2)C(c2ccc(C)cc2Cl)N=C(Nc2nc3cccc(N)c3o2)N1 (stereo not given)	6.73	< 1	5.26
CC1=C(C(=O)Nc2nncs2)C(c2ccncc2Br)N=C(Nc2nc3ccccc3o2)N1 (stereo not given)	> 30	6.5 (≈ 12.7 µM)	4.71
CC1=C(C(=O)Nc2ccc(CO)cc2)C(c2ccccc2Cl)N=C(Nc2nc3ccccc3o2)N1 (stereo not given)	> 30	< 1	
CC1=C(C(=O)Nc2cc(C(=O)O)ccc2C)C(c2ccccc2Cl)N=C(Nc2nc3ccc(F)cc3o2)N1 (stereo not given)			4.76
CC1=C(C(=O)Nc2cncc(C(=O)O)c2)C(c2ccccc2Cl)N=C(Nc2nc3ccccc3o2)N1 (stereo not given)	> 30	60.3 (≈ 120 µM)	
COc1ccc([C@@H]2N=C(Nc3nc4ccc(F)cc4o3)NC(C)=C2C(=O)Nc2cc(C(=O)O)ccn2)c(Cl)c1			5.70
COC(=O)c1cncc(NC(=O)C2=C(C)NC(Nc3nc4ccccc4o3)=NC2c2ccccc2Cl)c1 (stereo not given)	> 30	< 1	
CC1=C(C(=O)Nc2cccc(CCO)c2)C(c2ccccc2Cl)N=C(Nc2nc3ccccc3o2)N1 (stereo not given)	26.6		
CCn1cc(CNC(=O)C2=C(C)NC(Nc3nc4cccc(N)c4o3)=NC2c2ccc(F)cc2Cl)cn1 (stereo not given)	18.8		5.11
CC1=C(C(=O)NCc2cn(C)cn2)C(c2ccccc2Cl)N=C(Nc2nc3ccc(F)cc3o2)N1 (stereo not given)			4.71
COc1ccc([C@H]2N=C(Nc3nc4ccc(F)cc4o3)NC(C)=C2C(=O)Nc2cc(C(=O)O)ccn2)c(Cl)c1			4.71
CC1=C(C(=O)Nc2ccc(-n3cncn3)cc2)C(c2ccccc2Cl)N=C(Nc2nc3ccccc3o2)N1 (stereo not given)			4.46
CC1=C(C(=O)Nc2ccc(C(N)=O)cn2)C(c2ccccc2Cl)N=C(Nc2nc3ccc(F)cc3o2)N1 (stereo not given)			5.16
CC1=C(C(=O)Nc2cc(C(=O)O)ccn2)C(c2ccc(C)cc2Cl)N=C(Nc2ncc(-c3ccccc3)o2)N1 (stereo not given)	> 30	42.2 (≈ 77.7 µM)	
CC1=C(C(=O)Nc2nc(C(=O)O)cs2)C(c2ccccc2Cl)N=C(Nc2nc3ccccc3o2)N1 (stereo not given)			4.71
CC1=C(C(=O)Nc2ccc(-c3cn[nH]c3)cc2)C(c2ccccc2Cl)N=C(Nc2nc3ccccc3o2)N1 (stereo not given)			4.91

Reference: ChEMBL document CHEMBL5050861 (2021)
